Data on ten compounds can be found in patent US7147837B2, “Bioactivated diagnostic imaging constrast agents” (Epix Pharmaceuticals, Inc., priority 1996, dated 2006).

The structures appear in SMILES notation. Read-outs that look alike come from different tables or passages of the source.

In data set [1] the test system is alkaline phosphatase. The data set can be described thus: T1-weighted MRI scan at 1.0 Tesla of 4.5% HSA solutions with or without alkaline phosphatase. Format: biochemical. The method, then: Solutions of 4.5% HSA containing compounds 1 and 8 (0.1–0.2 mM) were prepared. After 15 minutes, an initial T1-weighted MRI scan (FISP-3D, TR=60, TE=5, alpha=60) at 1.0 Tesla of the 4.5% HSA solutions was obtained. […] Three units of alkaline phosphatase were added to half of the HSA solutions containing 1 and additional T1-weighted MRI scans were obtained. After 130 minutes, the solutions that contained 1 and alkaline phosphatase obtained 96% of the signal intensity that for the solutions that contain 8 at equivalent concentrations. […] A 20% increase in signal intensity was observed after addition of alkaline phosphatase to solutions containing 1.

For data set [2], the target named is T1, human serum albumin (HSA) (Homo sapiens, UniProt P02768). The data set can be described thus: Longitudinal relaxivity (R1) in PBS containing 4.5% HSA. It is filed as physicochemical. The following applies: for Relaxivity in 4.5% HSA: longitudinal relaxivity R1, 20 MHz, 37° C., PBS pH 7.4 with 4.5% HSA, unit from R1 definition, not in table. From the text: The magnetic resonance phenomena is complex, and different paramagnetic materials alter the MRI signal to various degrees. See R. B. Lauffer, Chemical Reviews (1987), 87, pp. 901–927. A quantitative measurement of the ability of a contrast agent to relax water protons, and consequently affect the MRI image, is provided by its relaxivity. Relaxivity is the dependence of water proton signal intensity upon the concentration of paramagnetic metal ion in solution. Relaxivity is defined as the induced T1 or T2 relaxation per unit time (R1 or R2 in units of mM^−1 sec^−1) observed for a contrast agent, where the concentration of the agent is expressed in a millimolar (mM).
The degree to which an agent has been tuned for maximum relaxivity can be assessed by measuring the relaxivity-bound (R1-bound) in the presence of HSA. This requires measuring the relaxivity of the free chelate (R1-free) as well as the relaxivity (R1-observed) and percent binding of the agent in 4.5% HSA. The R1-observed is a mole fraction weighted average of R1-free and R1-bound: R1-observed=(fraction-free*R1-free)+(fraction-bound*R1-bound) Thus:
(§1) In Table V, the longitudinal relaxivities (R1) were obtained at 20 MHz and 37° C. by determining the concentration dependent relaxation rate (1/T1) of water protons in phosphate buffered saline (PBS, 150 mM NaCl, 10 mM phosphate, pH=7.4) or in PBS solutions containing 4.5% human serum albumin (HSA). The percent bound to HSA was determined by ultrafiltration of a 0.1 mM chelate, 4.5% HSA solution.

For data set [3], the system named is alkaline phosphatase. The experiment in a line: Bioactivation of prodrug by alkaline phosphatase in 4.5% HSA, 1/T1 monitored over time. It is filed as biochemical. Conditions: for 1/T1: 4.5% HSA, three units alkaline phosphatase, 20 MHz. The method, then:
A solution of prodrug 1 (0.3 mM) was prepared in PBS buffer (pH 7) containing 4.5% HSA. […] Three units of alkaline phosphatase (1 unit converts […] of p-nitrophenylphosphate to p-nitrophenol per minute in phosphate buffered saline at 0.1 mM substrate) were added to the 4.5% HSA solution of compound 1 and the 1/T1 was monitored over time.

The target in data set [4] is T1, human serum albumin (HSA). The experiment in a line: Percent bound to HSA by ultrafiltration. It is filed as binding. The following applies: for Percent Binding in 4.5% HSA: ultrafiltration, 0.1 mM chelate. How it is done:
Protein binding of contrast agents can be assessed in vitro by equilibrium dialysis or ultrafiltration using a physiologically relevant protein concentration in buffer. See, G. N. Rolinson and R. Sutherland, British J. Pharmac. Chemother. (1965), 25, p. 638 (ultrafiltration); D. Glick, Methods Biochem. Anal. (1956), 3 p. 265 (equilibrium dialysis). The protein binding measurements set forth in this application are determined by ultrafiltration using 4.5% (w/w) human serum albumin in phosphate buffered saline (0.15 NaCl, 10 mM phosphate, pH 7.4). Preferably at least 10%, and more preferably at least 50%, and even more preferably at least 80%, and most preferably at least 95%, of an activated protein-binding contrast agent will be bound to the protein under physiologically relevant conditions. In this application, the measurement of percent binding of the contrast agent to HSA has an error of approximately +/−5%. Protein binding to other proteins or to serum can be assessed in a similar fashion.
as §1

Data set [5] has as its target T2, HSA (Homo sapiens, UniProt P02768). Conditions: cited from earlier work.
For data set [6], the target named is T2, HSA. The following applies: cited from earlier work. The source holds these as a separate data set.
Data set [7] concerns alpha 1-acid glycoprotein (AAG). The following applies: binding to AAG; cited from earlier work.
For data set [8] the following is noted: cited from earlier work.
The target of data set [9] is T2, HSA. Conditions: cited from earlier work. This is another data set of the same source.

T1 sequence (P02768 25-609): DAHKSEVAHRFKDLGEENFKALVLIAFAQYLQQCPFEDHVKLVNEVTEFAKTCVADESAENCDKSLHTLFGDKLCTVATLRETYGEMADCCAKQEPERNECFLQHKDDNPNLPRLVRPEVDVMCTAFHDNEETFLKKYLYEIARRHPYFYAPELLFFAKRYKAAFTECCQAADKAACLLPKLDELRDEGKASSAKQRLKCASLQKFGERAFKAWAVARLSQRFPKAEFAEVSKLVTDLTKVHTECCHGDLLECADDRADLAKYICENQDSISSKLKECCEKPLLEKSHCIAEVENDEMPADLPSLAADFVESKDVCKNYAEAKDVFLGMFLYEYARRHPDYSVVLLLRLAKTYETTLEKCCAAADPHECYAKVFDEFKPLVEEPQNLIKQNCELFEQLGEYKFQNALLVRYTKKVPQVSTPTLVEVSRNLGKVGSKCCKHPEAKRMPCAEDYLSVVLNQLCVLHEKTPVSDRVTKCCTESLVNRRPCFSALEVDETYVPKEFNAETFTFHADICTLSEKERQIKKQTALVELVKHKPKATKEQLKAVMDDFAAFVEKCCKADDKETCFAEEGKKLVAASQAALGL
T2 sequence (P02768 25-609): as above

For the compound `O=C(O)CN(CCN(CC(=O)O)CC(COc1ccc(-c2ccc(OP(=O)(O)O)cc2)cc1)N(CC(=O)O)CC(=O)O)CC(=O)O` (centres unmarked) (Gd complex, metal not drawn) [Compound 1], the “MRI image without alkaline phosphatase” value in the data set with alkaline phosphatase [1] (4.5% HSA, no alkaline phosphatase, during the MRI scans) is given as “remained as constant dark images”. Besides, the “increase in signal intensity” value in the data set on alkaline phosphatase [1] (after addition of alkaline phosphatase) is recorded as 20%. For the same compound, in the data set on alkaline phosphatase [1] (with three units alkaline phosphatase, after 130 minutes, equivalent concentrations), the “signal intensity relative to solutions containing 8” value is reported as 96%. Further, the “Relaxivity in 4.5% HSA” value in data set [2] worked out at 15.9 ± 0.2 mM⁻¹ s⁻¹. Besides, in the data set with alkaline phosphatase [3] (0.3 mM in PBS (pH 7) with 4.5% HSA, before addition of alkaline phosphatase), the “change in 20 MHz proton relaxation rate 1/T1 with time” value was “No change”. Also, the 1/T1 came to 4.440 s⁻¹ in the data set with alkaline phosphatase [3] (0.3 mM prodrug in PBS (pH 7), time 0 min); 4.348 s⁻¹ in the data set with alkaline phosphatase [3] (0.3 mM, time 1 min); 4.651 s⁻¹ in the data set on alkaline phosphatase [3] (0.3 mM, time 2 min); 4.878 s⁻¹ with alkaline phosphatase [3] (0.3 mM, time 4 min); 5.025 s⁻¹ in the data set on alkaline phosphatase [3] (0.3 mM, time 6 min); 5.376 s⁻¹ with alkaline phosphatase [3] (0.3 mM, time 14 min). The 1/T1 in the data set on alkaline phosphatase [3] (0.3 mM, time 48 min) worked out at 6.250 s⁻¹; with alkaline phosphatase [3] (0.3 mM, time 90 min), 6.849 s⁻¹; in the data set on alkaline phosphatase [3] (0.3 mM, time 110 min), 7.042 s⁻¹; in the data set with alkaline phosphatase [3] (0.3 mM, time 137 min), 7.299 s⁻¹. The “approximate expected increase in signal intensity” value in the data set with alkaline phosphatase [3] (corresponding to the change in 1/T1 upon complete activation) is about 24%. Further, the “change in 1/T1 from time zero” value in the data set with alkaline phosphatase [3] (upon completion of enzymatic activation of 1 to 8) stood at 2.86 s⁻¹. The “Percent Binding in 4.5% HSA” value in [4] turned out to be 47 ± 1%.

Regarding `O=C(O)CN(CCN(CC(=O)O)CC(COc1ccc(-c2ccc(O)cc2)cc1)N(CC(=O)O)CC(=O)O)CC(=O)O` (centres unmarked) [Compound 8], in the data set on alkaline phosphatase [1] (0.1–0.2 mM in 4.5% HSA, 1.0 Tesla, equivalent concentrations, no enzyme), the “brightness of T1-weighted MRI scan” value was “brighter than the solutions containing 1”. For the same compound, the “relaxivity compared with prodrug” value in [2] (bound to HSA, 0.1 mM) is given as “higher relaxivity”. Also, in data set [2], the “Relaxivity in 4.5% HSA” value came out at 26.4 ± 0.4 mM⁻¹ s⁻¹. Besides, in data set [4] (concentration of 0.1 mM), the “HSA binding affinity compared with prodrug” value is “greater affinity than prodrug 1”. For the same compound, the “Percent Binding in 4.5% HSA” value in [4] was found to be 63 ± 2%.

Consider `CCn1cc(C(=O)O)c(=O)c2cc(F)c(N3CCNC(C)C3)c(F)c21` (centres unmarked) [NY-198], for which the “fraction bound to HSA (fb)” value on HSA [5] was 0.28.

As to `C[C@H](CCC(=O)O)[C@H]1CC[C@H]2[C@@H]3[C@H](O)C[C@@H]4C[C@H](O)CC[C@]4(C)[C@H]3CC[C@]12C` [chenodeoxycholic acid], the binding constant at HSA [6] is listed as 5.5×10^4.

In the case of `CN(C)CCCN1c2ccccc2Sc2ccc(Cl)cc21` [chlorpromazine], the Ka in data set [7] is 35.4×10^5.

Turning to `CCn1cc(C(=O)O)c(=O)c2cc(F)c(N3CCNCC3)nc21` [enoxacin], the “fraction bound to HSA (fb)” value on HSA [5] is on record as 0.35.

As for `CC1(C)C(/C=C/C=C/C=C/C=C2\N(CCCCS(=O)(=O)O)c3ccc4ccccc4c3C2(C)C)=[N+](CCCCS(=O)(=O)[O-])c2ccc3ccccc3c21` [indocyanine green], the figures for the maximal absorbance in [8] (before binding to proteins) and in data set [8] (upon binding to proteins in plasma or blood) were 770–780 nm and 790–805 nm, respectively.

On to `O=C(CCCCC(=O)Nc1c(I)cc(I)c(C(=O)O)c1I)Nc1c(I)cc(I)c(C(=O)O)c1I` [iodipamide], for which the “binding to HSA” value on HSA [9] is recorded as over 98%.

`COn1cc(C(=O)O)c(=O)c2cc3c(cc21)OCO3` [miloxacin]: the “fraction bound to HSA (fb)” value on HSA [5] was 0.86.

Turning to `CCn1cc(C(=O)O)c(=O)c2ccc(C)nc21` [nalidixic acid], at HSA [5], the “fraction bound to HSA (fb)” value is 0.71.
